For one test, the target named is T1, CAMKK1-FL (Homo sapiens, UniProt Q8N5S9).
T1 construct: purchased Eurofins Discovery (MO, USA), assay service
The test can be described thus: Radiometric enzymatic assay (Eurofins Discovery), Ca2+/Calmodulin present. Format: biochemical. The settings on record: 200 µM ATP; single measurement. As for the experimental part:
All compounds employed in this study were initially developed to target other human protein kinases, and some are known to be quite promiscuous[18],[21].
Reaction conditions for assays using CAMKK1-FL were: 8 mM MOPS pH 7.0, 0.2 mM EDTA, 0.33 mg/mL MBP (myelin basic protein), 0.5 mM calcium chloride, 0.016 mg/ml calmodulin, 10 mM magnesium acetate and [gamma-^33P-ATP] (200 µM). […] The reactions were initiated by the addition of a Mg^2+-ATP mixture. After incubation for 40 minutes at room temperature, the reaction was stopped by the addition of phosphoric acid to a final concentration of 0.5%. […] Following subtraction of the average inhibitor control well counts, results were expressed as a percentage of the mean kinase activity in the positive control sample.

Test [1] addresses T2, CAMKK2-KD (kinase domain of CAMKK2) (Homo sapiens, UniProt Q96RR4).
T2 construct: the protein kinase domain (amino acids 161–449); hexahistidine (6xHis), TEV-cleavable; made in house
The test can be described thus: DSF thermal-shift screen, 384-well format. The format is binding. The settings on record: 10 µM compound, 1 µM kinase, 0.1% DMSO, single measurement. The protocol:
(§1) We employed a thermal-shift assay (Differential Scanning Fluorimetry, DSF)[19] to identify compounds that can bind to the kinase domain of CAMKK2 (CAMKK2-KD). Protein thermal denaturation curves (Fig. 1A,B) were used to calculate the denaturation midpoint temperature (Tm) for the kinase domain of CAMKK2 in the presence of ligands or vehicle only (DMSO). […] DSF screens were performed on purified CAMKK2-KD using a library of commercially available, chemically diverse, ATP-competitive, kinase inhibitors.
DSF experiments in 384-well format followed a protocol previously established at the SGC-UNICAMP and described elsewhere.
The compounds, previously solubilized in DMSO, were used at 10 µM final concentration and 0.1% DMSO. Plates were sealed using optically clear films and transferred to a QuantStudio 6 qPCR instrument (Applied Biosystems). […] Protein in 0.1% DMSO was used as a reference.
(§2) For both formats, experiments were performed in singlets.

The target in a further test is CAMKK2-KD (Homo sapiens, UniProt Q96RR4). The test can be described thus: Isothermal titration calorimetry (reverse titration). The settings on record: 20 °C. For orientation: Isothermal titration calorimetry measures the heat released or taken up as one component is titrated into another.
Sequence of CAMKK2-KD (Q96RR4 161-449): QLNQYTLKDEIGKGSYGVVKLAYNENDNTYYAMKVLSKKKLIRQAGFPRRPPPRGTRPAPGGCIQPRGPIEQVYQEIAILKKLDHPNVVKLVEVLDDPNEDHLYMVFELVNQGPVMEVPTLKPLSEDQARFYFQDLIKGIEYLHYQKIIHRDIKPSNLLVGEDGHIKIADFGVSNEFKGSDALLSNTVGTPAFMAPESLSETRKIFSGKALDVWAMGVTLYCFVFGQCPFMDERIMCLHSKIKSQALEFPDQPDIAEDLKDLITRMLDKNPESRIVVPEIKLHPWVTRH
The next test addresses T3, CAMKK2-FL (Homo sapiens, UniProt Q96RR4).
T3 construct: an enzymatic assay using the full-length protein (CAMKK2-FL); purchased Eurofins Discovery (MO, USA), assay service
Kind of test: Radiometric enzymatic assay (Eurofins Discovery), Ca2+/Calmodulin present. Format: biochemical. The settings on record: for fold more active towards CAMKK2-FL than CAMKK1-FL: from IC50 values of Table 1; for IC50: 90 µM ATP, single measurement.

The next test deals with CAMKK2. Further details: method as in Anastassiadis et al. (2011). The settings on record: 0.5 µM compound; ref Anastassiadis et al. (2011); cited from earlier work.
Test [2] addresses T2, CAMKK2-KD (kinase domain of CAMKK2). The test can be described thus: DSF thermal-shift screen, 96-well format. Format: binding. The settings on record: 96-well format, 12 µM compound, 2 µM kinase, 2.5% DMSO, single measurement. The protocol: as §1
SYPRO Orange dye (Invitrogen) was used in 5X as final concentration.
Plates were sealed using optically clear films and transferred to an Mx3005p RT-PCR machine (Agilent).
as §2

Another test deals with CAMKK1. The arrangement: method as in Anastassiadis et al. (2011). The settings on record: 0.5 µM compound; ref Anastassiadis et al. (2011); cited from earlier work.
Test [3] deals with six other kinases (panel of 92 protein kinases). Further details: method as in PMID 17850214. The settings on record: screened against a panel of only 92 protein kinases; cited from earlier work.
[4] abbreviates: individual ITC experiment, run 1.
The mark [5] stands for this setting: individual ITC experiment, run 2.

Read-outs that look alike come from different tables or passages of the source. Marks after values point to notes of the source that are not given here.

T2 sequence (Q96RR4 161-449): as above

Broadly, the IC50 is the concentration that inhibits the measured activity by half. A word on the ΔTm: it is the shift of the melting midpoint relative to a reference. The Kd is the constant that tells how readily two partners part at equilibrium. As for `COc1cc(N2CCC(N(C)C)CC2)ccc1Nc1ncc(Cl)c(Nc2ccccc2P(C)(C)=O)n1` [ALK-IN-1], half-maximal inhibition on CAMKK1-FL (IC50) was put at 0.182 µM. In test [1], the ΔTm was 11.2^d °C. Moreover, the “ΔH Run 1” value at CAMKK2-KD (setting [4]) is -10.3 kcal/mol. Moreover, on CAMKK2-KD (setting [5]), the “ΔG Run 2” value was -10.9 kcal/mol. Besides, on CAMKK2-KD (setting [5]), the “ΔH Run 2” value was -9.73 kcal/mol. Besides, the Kd on CAMKK2-KD (read-out: ITC KD, serial integrations of two independent experiments) was 0.002 µM; on CAMKK2-KD (read-out: KD Run 1, individual ITC experiment, run 1), 0.0025 µM; at CAMKK2-KD (read-out: KD Run 2, individual ITC experiment, run 2), 0.002 µM. For the same compound, the “fold more active towards CAMKK2-FL than CAMKK1-FL” value at CAMKK2-FL is given as ~ 10 fold.
Regarding `CC(C)[C@H](CO)Nc1nc(Nc2cc(N)cc(Cl)c2)c2ncn(C(C)C)c2n1` [Aminopurvalanol], the IC50 against CAMKK1-FL is 0.188 µM; against CAMKK2-FL, 0.159 µM. Further, the “% Activity Remaining at 0.5 µM, CAMKK2” value in the test with CAMKK2 is listed as 33.3%. The ΔTm at 12 µM in test [2] (read-out: ΔTm) amounted to 9.7 °C. For the same compound, the “% Activity Remaining at 0.5 µM, CAMKK1” value in the test with CAMKK1 is on record as 86.8%.
Consider `CC[C@@H]1C(=O)N(C)c2cnc(Nc3ccc(C(=O)N[C@H]4CC[C@H](N5CCN(CC6CC6)CC5)CC4)cc3OC)nc2N1C(C)C` [BI 6727, Volasertib], for which the IC50 at CAMKK1-FL turned out to be 0.087 µM; at CAMKK2-FL it was 0.044 µM. In test [1], the ΔTm at 10 µM turned out to be 6 °C.
On to `CN(C)CCCn1cc(C2=C(c3c[nH]c4ccccc34)C(=O)NC2=O)c2ccccc21` [BIM I], for which, at CAMKK1-FL, the IC50 was 2.59 µM. Besides, the ΔTm in test [2] was 7.2^e °C.
In turn, `COCCOc1ccc2c(c1)ncn2-c1ccc2cccc(N3CCC(N)CC3)c2n1` [CP-673451] showed an IC50 at CAMKK1-FL of 0.122 µM. For the same compound, the ΔTm at 10 µM in test [1] came out at 10 °C. The Kd at CAMKK2-KD (ITC KD, serial integrations of two independent experiments) came out at 0.002 µM. For the same compound, the Kd on CAMKK2-KD (KD Run 1, individual ITC experiment, run 1) turned out to be 0.0026 µM. In addition, the Kd at CAMKK2-KD (KD Run 2, individual ITC experiment, run 2) worked out at 0.0015 µM. Moreover, at CAMKK2-KD (setting [4]), the “ΔG Run 1” value was -11.5 kcal/mol and the “ΔH Run 1” value was -13.2 kcal/mol. Besides, at CAMKK2-KD (setting [5]), the “ΔG Run 2” value is -11.8 kcal/mol and the “ΔH Run 2” value was -13 kcal/mol. On CAMKK2-FL, 0.019 µM corresponded to half-maximal inhibition (IC50) and the “fold more active towards CAMKK2-FL than CAMKK1-FL” value was ~ 10 fold.
In the case of `CC1(COc2ccc3c(c2)ncn3-c2ccc3cccc(N4CCC(N)CC4)c3n2)COC1` [Crenolanib (CP-868596), Crenolanib], the half-maximal inhibitory concentration (IC50) against CAMKK1-FL amounted to 0.082 µM; on CAMKK2-FL it was 0.021 µM. Besides, the ΔTm at 10 µM in test [1] stood at 10.6 °C.
Take `COC(=O)[C@@]1(O)C[C@H]2O[C@]1(C)n1c3ccccc3c3c4c(c5c6ccccc6n2c5c31)C(=O)NC4` [K252a]: the IC50 is 0.051 µM against CAMKK1-FL and 0.05 µM against CAMKK2-FL. Besides, the ΔTm in test [2] was 18.3^e °C.
For the compound `O=C(O)c1ccc2c3c1cccc3c(=O)n1c3ccccc3nc21` [STO-609], the concentration for half-maximal inhibition (IC50) in test [3] was less than 0.25 µM.
In the case of `CN[C@@H]1C[C@H]2O[C@@](C)([C@@H]1OC)n1c3ccccc3c3c4c(c5c6ccccc6n2c5c31)C(=O)NC4` [Staurosporine], in the test with CAMKK2, the “% Activity Remaining at 0.5 µM, CAMKK2” value was 0.24%. Besides, the “% Activity Remaining at 0.5 µM, CAMKK1” value in the test on CAMKK1 is listed as -3.13%.
As to `CNC(=O)c1ccccc1Nc1nc(Nc2ccc(N3CCOCC3)cc2OC)ncc1Cl` [TAE226], the midpoint of inhibition on CAMKK1-FL, the IC50, lay at 0.395 µM. Further, the ΔTm in test [1] is 7.5^d °C.

The values are drawn from PMC6848146, “Binding and structural analyses of potent inhibitors of the human Ca^2+/calmodulin dependent protein kinase kinase 2 (CAMKK2) identified from a collection of commercially-available kinase inhibitors” (Scientific Reports, 2019).
